Tests used:
[1] = test system: p100/p120; experiment: p100/p120 electrophoretic mobility, MDCK strain II cells; format: cell-based; conditions: 200 nM PDB, 30 minutes
Experimental: p100 and p120 electrophoretic mobility is affected by PDB in a number of different epithelial cell lines. LLC-PK1, (a porcine kidney cell line), MDCK strain II cells and gut-derived Caco-2 cells were treated with or without 200 nM PDB for 30 minutes, lysed into Laemmli sample buffer, separated by electrophoresis and analysed by immunoblotting.
MDCK strain I and II cells were provided by Barry Gumbiner (memorial Sloan-Kettering Cancer Center, NY). LLC-PK1 and Caco-2 cells were obtained from the European Collection of Animal Cell Cultures. All cells were maintained at 37° C. under 5% CO2 in humidified air. MDCK strain I and II cells were maintained in MEM containing 10% FCS, 100 U/ml penicillin, 100 μg/ml streptomycin and 2 mM L-glutamine. Caco-2 cells were maintained in MEM containing 15% FCS, 1% non-essential amino acids and 1 μg/ml bovine insulin (Sigma I-6634). LLC-PK1 cells were grown in M199 (Gibco), 10% FCS, 100 U/ml penicillin, 100 μg/ml streptomycin and 2 mM L-glutamine. For whole cell lysate analysis, 10^5 cells were plated on 6.5 mm diameter, 0.4 μm, polycarbonate Transwell filters from Costar, in 0.25 ml of medium. The basolateral chamber contained 0.75 ml of medium. For immunoprecipitation, 5×10^5 cells were plated onto 24 mm Transwell filters, in 2 ml of medium, with 3 ml of medium in the lower chamber. Cells were used 4-7 days after plating. […]

[2] = test system: p100/p120; experiment: p100/p120 electrophoretic mobility, bovine aortic endothelial cells (BAECs); format: cell-based; conditions: 200 nM PDB, 30 minutes
Experimental: The mobility of p100 and p120 during electrophoresis is also altered by PDB-treatment in endothelial cells. The p100/p120 proteins from human umbilical vein endothelial cells (HUVECs), bovine aortic endothelial cells (BAECs) and primary pig brain endothelial cells (PBECs) were all affected by PDB-treatment. Cells were treated with or without 200 nM PDB for 30 minutes, lysed into Laemmli sample buffer, separated by electrophoresis and analysed by immunoblotting with antibodies recognising p100 and p120. […] Thus the effect of PKC activation (via PDB) on p100/p120 mobility is a widespread phenomenon.
Whole cell lysates were prepared by rapidly replacing the culture medium in 6.5 mm with hot Laemmli sample buffer, followed by heating at 100° C. for 5 minutes. Immunoprecipitations were carried out at 4° C. Confluent monolayers of cells were washed rapidly with ice cold PBS (containing 0.9 mM CaCl2 and 0.5 mM MgCl2) before addition of 0.5 ml of the appropriate buffer. The filters were then gently scraped, and the lysate was removed and centrifuged at 14000× g. […]
Cell extracts or immunoprecipitates in SDS sample buffer were resolved by SDS-PAGE. […] The filters were then extensively washed in PBS/0.5% Tween-20, and immunoreactive bands were detected by enhanced chemiluminescence (Amersham) following the manufacturers instructions.

CCCC(=O)O[C@@H]1[C@@H](C)[C@@]2(O)[C@@H](C=C(CO)C[C@]3(O)C(=O)C(C)=C[C@@H]23)[C@@H]2C(C)(C)[C@]12OC(=O)CCC [PDB, Phorbol-12,13-dibutyrate]
migration of p100 and p120 [1]: increased markedly
mobility of p100 and p120 [2]: the mobility of p100 and p120 increased

Source: patent US6407058B1, “Modifying the permeability of physiological barriers” (Eisai Co., Limited, priority 1996, dated 2002)
